Consider 25 molecules from patent US20060281695A1, “Control of parasites in animals by N-[(phenyloxy)phenyl]-1,1,1-trifluoromethanesulfonamide and N-[(phenylsulfanyl)phenyl]-1,1,1-trifluoromethanesulfonamide derivatives” (priority 2005, published 2006).

Structures are written as SMILES.

For one data set, the system named is Haemonchus contortus. The experiment in a line: Haemonchus contortus larvacidal (larval development) assay, LD99. Format: in vitro. How it is done: The LD99 value is the dose, expressed as […], that was required to kill 99% of a sample of Haemonchus contortus.
a) Haemonchus Contortus Larvacidal Assay:
The effect of compounds on larval development was determined in the assay described by Gill et al. [International Journal of Parasitology 25:463-470 (1995)]. Briefly, in this assay, nematode eggs are applied to the surface of an agar matrix containing the test compound and then allowed to develop through to the L3, infective stage (6 days). The wells for each dilution of every compound (from highest to lowest concentration) are inspected to determine the well number corresponding to the lowest concentration at which development is inhibited in 99% of the nematode larvae present (LD99). Because well numbers correspond to a two-fold serial dilution of each compound, a titre (dilution factor) is generated as 2^n−1, where n is the well number. By dividing the highest concentration tested by the titre an LD99 value can be obtained, representing the concentration required to inhibit development in 99% of the nematode larvae present. The compounds supplied as solid and viscous liquids are dissolved in DMSO. Twelve serial one-half dilutions in DMSO solution are prepared from the stock solution, each of which is then diluted 1/5 with water. Aliquots (10 μl) of each dilution are transferred to the bioassay plates to give a final concentration range of 0.024 to 50 μg/ml.
(§1) In Table 7, provided below, are listed the Haemonchus contortus LD99 values (measured in micrograms/mL), the Ctenocephalides felis rapid screening values (measured in % mortality), the Ctenocephalides felis LC50 values (measured in micrograms/cm^2) and the Rhipicephalus sanguineus rapid screening values (measured in % mortality) for selected compounds in accordance with the present invention.

The subject of data set [1] is cat flea (Ctenocephalides felis). The experiment in a line: Ctenocephalides felis adulticide assay: single dose screen on treated glass surface (% mortality at 1.26 μg/cm^2, 24 hours). Format: in vivo. Conditions: for mortality at 1.26 µg/cm2, 1.26 µg/cm2: Ctenocephalides felis, 24 h, read-out: Ctenocephalides felis Mortality (%) 24 h. How it is done:
The LC50 value is the concentration, expressed as μg/cm^2, that was required to kill 50% of the sample of cat fleas on contact with the tested compound. Certain tests are also reported as the percent of a sample of cat fleas that were killed at a concentration of 1.26 μg/cm^2 (“% mortality”), for the compounds tested in this way.
b) Ctenocephalides felis Adulticide Assay: C.felis single dose screen
Mortality of fleas is the primary endpoint in the assay. […] The concentration chosen (1.26 μg/cm^2) is higher than that known to kill 90% of cat fleas (LC90) using the reference compound, permethrin.
The test species employed was the cat flea (Ctenocephalides felis). The strain used was obtained from external suppliers as pupae and held in the laboratory under testing conditions until the adults had emerged. Fifteen (15) fleas were used in a minimum of four replicates against a single concentration level (approximately 60 fleas). The insects were selected to be in the adult life stage, aged between 3 and 7 days post emergence.
The compounds to be tested were supplied as solids and were prepared in acetone as described below prior to testing. Samples were stored in a refrigerator (5±1° C.) unless otherwise specified.
During the mortality testing, the temperature was maintained at 25±1° C. Humidity was maintained at 75±5%. The base (area=159 mm^2) of a 100 mL glass Erlenmeyer (conical) flask provided the treatment surface. Flasks were pre-treated with Coatasil™ glass treatment to maximise bio-availability of test compounds by preventing them from binding to glass the surface. The base of the 100 mL Erlenmeyer flask was treated with 0.5 mL of test sample in acetone and gently swirled. This volume was sufficient to cover the base of the flask. Flasks were left to dry for 24 hours before flea exposure.
Adult cat fleas were placed into a sorting chamber, which allowed fleas to jump into the Erlenmeyer flasks. Fifteen (15) adult cat fleas were collected in each flask. The top of the flasks were then covered in Parafilm™ and small holes were made to allow gas exchange. A 0.5 mL volume of acetone as a solvent control was applied to the base of an Erlenmeyer flask and the testing proceeded in the same manner described above. […] Pooled 24 hour mortality data were converted to percentages and are summarized by Table 4, below.
as §1

In data set [2] the test system is Brown Dog Tick (Rhipicephalus sanguineus). The experiment in a line: Topical application on brown dog ticks, single dose screen (% mortality at 24 hours). The conditions noted are these: adult brown dog ticks, topical 1 μL in acetone on abdomen, single dose 10 μg per tick. Format: in vivo. The protocol: d) Topical Application On Brown Dog Ticks (Rhipicephalus sanguineus)
The aim of the test is to determine the presence of significant acaricidal activity in sample compounds or formulations when applied topically on brown dog ticks. A tick is defined as dead if it gives no apparent response when: (i) touched lightly and (ii) then observed for 1 minute. To assess the experimental compound for acaricidal activity, a single dose level is chosen based on known results from previous experiments with a commercially available active reference compound.
In the present example, both permethrin and fipronil were employed as reference compounds. The insect species tested was the Brown Dog Tick (Rhipicephalus sanguineus). Mixed sex adult ticks were used for tests. The strain used was cultured from a field strain and supplied as unfed adult ticks (mixed sex). Ticks were maintained in controlled conditions (temp. 18°±2° C., humidity 75±5% RH).
Test compounds (formulations or active ingredients) were stored in a refrigerator (5±1° C.) unless otherwise specified. The temperature was maintained at 25±1° C. and the humidity was ambient. The screening dose chosen was higher than that known kill 90% of insects (LD90) using the reference compound. In the case of topical application of active compounds on adult ticks, the reference compound was fipronil and the dose chosen was 10 μg of active per tick (=10 μg of fipronil/1 μl of acetone). Ticks were each treated on the abdomen with 1 μL of a single dose level of test sample in acetone; ten ticks were treated with solvent only (acetone) in each test. Tests were replicated 4 times (total of 40 ticks treated). Ticks were held in recovery containers maintained under appropriate rearing conditions for 24 hours. Mortality resulting from the treatments was recorded at 24 hours. Pooled 24 hour mortality data were converted to percentages.
as §1

Where [3] appears, read: adult cat fleas, single dose screen on treated glass surface, mortality at 24 h.

For `O=S(=O)(Nc1cccc(Cl)c1Oc1ccc(Cl)cc1Cl)C(F)(F)F` [Compound 11], in the data set on Haemonchus contortus, the “Haemonchus contortus LD99” value worked out at 2.5 µg/mL. In addition, the “Ctenocephalides felis Mortality (%) 24 h” value in data set [1] (in vivo) was determined as 20%.
For `CC(C)(C)c1ccc(Oc2cc(Cl)c(Cl)cc2NS(=O)(=O)C(F)(F)F)cc1` [Compound 18], the “Haemonchus contortus LD99” value in the data set on Haemonchus contortus turned out to be 2.8 µg/mL. Further, in data set [1] (in vivo), the “Ctenocephalides felis Mortality (%) 24 h” value is 19%.
A word on the mortality: it is the percentage killed. As to `CC(C)(C)C(=O)OCN(c1ccc(Cl)cc1Oc1ccc(Cl)cc1Cl)S(=O)(=O)C(F)(F)F` [Compound 72, N-[4-Chloro-2-(2,4-dichlorophenoxy)phenyl]-N-(trimethylacetyl)oxymethyl-1,1,1-trifluoromethanesulfonamide], in data set [1], the mortality at 1.26 µg/cm2, 1.26 µg/cm2 is 14%. The “Ctenocephalides felis Mortality (%), measured at 48 hours” value in data set [1] (in vivo) is given as 100%. For the same molecule, the “Rhipicephalus sanguineus Mortality (%) 24 h” value in data set [2] amounted to 0%.
Turning to `O=S(=O)(c1ccc(Cl)cc1)c1cc(Cl)ccc1NS(=O)(=O)C(F)(F)F` [Compound 24, N-[4-chloro-2-(4-(chlorophenyl)sulfonyl)phenyl]-1,1,1-trifluoromethanesulfonamide], the “Haemonchus contortus LD99” value with Haemonchus contortus came out at 12.0 µg/mL. For the same molecule, in data set [1] (in vivo), the “Ctenocephalides felis Mortality (%) 24 h” value is on record as 19%.
For `O=S(=O)(Nc1cc(C(F)(F)F)ccc1Oc1ccc(Cl)cc1Cl)C(F)(F)F` [Compound 10], in that order: 1.5 µg/mL and 38%.
For `O=S(=O)(Nc1ccc(Cl)c(Cl)c1Oc1ccccc1F)C(F)(F)F` [Compound 17], in that order: 7.5 µg/mL and 19%.
In the same order, the values of `O=S(=O)(Nc1cc(Cl)c(Cl)cc1Oc1ccc(F)cc1Cl)C(F)(F)F` [Compound 19] are 5.0 µg/mL and 42%.
With `Cc1cccc(Oc2cc(Cl)ccc2NS(=O)(=O)C(F)(F)F)c1C` [Compound 27], the “Haemonchus contortus LD99” value in the data set with Haemonchus contortus came to 14 µg/mL. In addition, the “Ctenocephalides felis Mortality (%) 24 h” value in data set [1] (in vivo) turned out to be 59%.
`CCOCN(c1ccc(Cl)cc1Oc1ccc(Cl)cc1Cl)S(=O)(=O)C(F)(F)F` [Compound 71, N-[4-Chloro-2-(2,4-dichlorophenoxy)phenyl]-N-ethoxymethyl 1,1,1-trifluoromethanesulfonamide]: in data set [1] (in vivo), the “Ctenocephalides felis Mortality (%) 24 h” value is listed as 0% and the “Ctenocephalides felis Mortality (%), measured at 48 hours” value stood at 100%. Besides, the “Rhipicephalus sanguineus Mortality (%) 24 h” value in data set [2] is 5%.
As for `C#CCN(c1ccc(Cl)cc1Oc1ccc(Cl)cc1Cl)S(=O)(=O)C(F)(F)F` [Compound 83, N-[4-chloro-2-(2,4-dichlorophenoxy)phenyl]-N-(2-propynyl)-1,1,1-trifluoromethanesulfonamide], the mortality at 1.26 µg/cm2, 1.26 µg/cm2 in data set [1] stood at 100%. In data set [2], the “Rhipicephalus sanguineus Mortality (%) 24 h” value stood at 8%.
Regarding `CCOCN(c1cccc(Oc2ccccc2)c1)S(=O)(=O)C(F)(F)F` [m3], in data set [1] (in vivo), the “Ctenocephalides felis Mortality (%) 24 h” value came out at 57%. In addition, the “Rhipicephalus sanguineus Mortality (%) 24 h” value in data set [2] is listed as 38%.
In the case of `O=S(=O)(Nc1cc(C(F)(F)F)c(Cl)cc1Oc1ccc(Cl)cc1Cl)C(F)(F)F` [Compound 22], the “Haemonchus contortus LD99” value in the data set on Haemonchus contortus was 0.63 µg/mL. For the same molecule, in data set [1] (in vivo), the “Ctenocephalides felis Mortality (%) 24 h” value is recorded as 4%.
`O=S(=O)(Nc1ccc(Cl)cc1Oc1cccc2c1CCCC2)C(F)(F)F` [Compound 28]: the “Haemonchus contortus LD99” value with Haemonchus contortus came out at 12 µg/mL. Also, the “Ctenocephalides felis Mortality (%) 24 h” value in data set [1] (setting [3]) stood at 10%.
In the same order, the values of `O=S(=O)(Nc1ccc(Cl)cc1Oc1ccc(Cl)c(Cl)c1)C(F)(F)F` [Compound 7] are 1.63 µg/mL and 22%.
On to `CCCC(=O)OCN(c1ccc(Cl)cc1Oc1ccc(Cl)cc1Cl)S(=O)(=O)C(F)(F)F` [Compound 73, N-[4-chloro-2-(2,4-dichlorophenoxy)phenyl]-N-(butyryl)oxymethyl-1,1,1-trifluoromethanesulfonamide], for which the mortality at 1.26 µg/cm2, 1.26 µg/cm2 in data set [1] was found to be 31%. In addition, the “Ctenocephalides felis Mortality (%), measured at 48 hours” value in data set [1] (in vivo) turned out to be 100%. Moreover, in data set [2], the “Rhipicephalus sanguineus Mortality (%) 24 h” value is given as 8%.
For the molecule `O=S(=O)(Nc1ccc(Cl)cc1Oc1ccccc1Cl)C(F)(F)F` [Compound 6], in the data set with Haemonchus contortus, the “Haemonchus contortus LD99” value stood at 15.0 µg/mL. Moreover, the “Ctenocephalides felis Mortality (%) 24 h” value in data set [1] (in vivo) was 74%.
Turning to `CC(C)=CCN(c1ccc(Cl)cc1Oc1ccccc1F)S(=O)(=O)C(F)(F)F` [Compound 82], the “Ctenocephalides felis Mortality (%) 24 h” value in data set [1] (in vivo) was 90%. Moreover, the “Rhipicephalus sanguineus Mortality (%) 24 h” value in data set [2] came out at 0%.
Turning to `CC(C)=CCN(c1ccc(Cl)cc1Oc1ccc(Cl)cc1Cl)S(=O)(=O)C(F)(F)F` [Compound 75, N-(3-methyl-2-butenyl)-N-[4-chloro-2-(2,4-dichlorophenoxy)phenyl]-1,1,1-trifluoromethanesulfonamide], the mortality at 1.26 µg/cm2, 1.26 µg/cm2 in data set [1] came to 97%. Besides, the “Rhipicephalus sanguineus Mortality (%) 24 h” value in data set [2] is recorded as 3%.
As for `CC(C)(C)c1ccc(Oc2cc(Cl)ccc2NS(=O)(=O)C(F)(F)F)cc1` [Compound 3], the “Haemonchus contortus LD99” value in the data set on Haemonchus contortus was found to be 7.0 µg/mL. For the same molecule, the “Ctenocephalides felis Mortality (%) 24 h” value in data set [1] (in vivo) was determined as 58%.
In the case of `COCN(c1cccc(Oc2ccccc2)c1)S(=O)(=O)C(F)(F)F` [m4], the “Ctenocephalides felis Mortality (%) 24 h” value in data set [1] (in vivo) is recorded as 90%. For the same molecule, in data set [2], the “Rhipicephalus sanguineus Mortality (%) 24 h” value amounted to 8%.
Consider `O=S(=O)(Nc1cc(C(F)(F)F)ccc1Oc1ccc(Cl)cc1)C(F)(F)F` [Compound 29], for which the “Haemonchus contortus LD99” value with Haemonchus contortus was determined as 7.0 µg/mL. For the same molecule, the “Ctenocephalides felis Mortality (%) 24 h” value in data set [1] (in vivo) came to 57%.
`O=S(=O)(Nc1cc(Cl)c(Cl)cc1Oc1ccc(Cl)cc1Cl)C(F)(F)F` [Compound 13]: in the data set with Haemonchus contortus, the “Haemonchus contortus LD99” value was 1.8 µg/mL. For the same molecule, in data set [1] (in vivo), the “Ctenocephalides felis Mortality (%) 24 h” value was 48%.
`O=S(=O)(Nc1ccccc1Nc1ccccc1)C(F)(F)F` [Compound 90]: the “Ctenocephalides felis Mortality (%) 24 h” value in data set [1] (in vivo) turned out to be 88%. For the same molecule, the “Rhipicephalus sanguineus Mortality (%) 24 h” value in data set [2] is recorded as 13%.
For the molecule `CN(c1ccc(Cl)cc1Oc1ccc(Cl)cc1Cl)S(=O)(=O)C(F)(F)F` [Compound 70, N-[4-Chloro-2-(2,4-dichlorophenoxy)phenyl]-N-methyl-1,1,1-trifluoromethanesulfonamide], the mortality at 1.26 µg/cm2, 1.26 µg/cm2 in data set [1] came to 11%. For the same molecule, in data set [1] (in vivo), the “Ctenocephalides felis Mortality (%), measured at 48 hours” value came out at 91%. Further, the “Rhipicephalus sanguineus Mortality (%) 24 h” value in data set [2] was found to be 5%.
Consider `O=S(=O)(Nc1cccc(Oc2ccccc2)c1)C(F)(F)F` [m1], for which the “Ctenocephalides felis Mortality (%) 24 h” value in data set [1] (in vivo) was 93%. Moreover, the “Rhipicephalus sanguineus Mortality (%) 24 h” value in data set [2] is on record as 38%.
